Experimental data taken from patent US7521071B2, “Formulation of oral compositions comprising arsenic trioxide and methods of use thereof” (Versitech Limited, priority 2002, dated 2009).
Marks after values point to notes of the source that are not given here.

Tests used:
[1] = tested on: acute promyelocytic leukemia (APL); details: cited from earlier work
[2] = Safety monitoring in Example 1 (ECG, complications); assay type: in vivo, human patients
Protocol: Demographic features as well as details pertaining to each patient's disease state (including laboratory findings) were recorded throughout the period of study. Their subsequent clinical progress and pertinent laboratory results were also logged. The University of Hong Kong Faculty of Medicine Ethics Committee approved the entire protocol.
The demographic features, basal arsenic concentrations, disease status, and treatment outcomes of each patient are shown in Table 2.

PML/RARA = test: Molecular monitoring of PML/RARA (PCR) in Example 2; assay type: in vivo, human patients
Protocol: Twelve consecutive unselected patients with relapsed APL were treated with oral-As2O3 (see Table 4). The relapse was confirmed morphologically (>30% blasts+abnormal promyelocytes in the marrow) and cytogenetically (presence of t(15;17), with none of the cases showing additional karyotyic aberrations) or molecularly (presence of PML/RARA). The treatment was given with informed consent, and the protocol was approved by the University of Hong Kong Faculty of Medicine Ethics Committee.
However, PML/RARA became negative in 11 cases 3-6 months post-remission, and remained negative until the latest bone marrow examination. PCR in patient no. 1 became positive shortly before R2.

[3] = As2O3 powder; cited from earlier work
[4] = Arsenic in plasma and cellular fraction of blood at 48 hours; assay type: in vivo, human patients
Protocol: (§1) Venous blood samples were drawn (11 ml) prior to As2O3 administration on day-1 and subsequently at the following times after the beginning of the IV infusion: 1, 2, 3, 4, 6, 8, 24, 25, 26, 27, 28, 30, 32 and 48 hours. Five ml from each sample were collected in a non-gel lithium-heparin tube (for determination of plasma arsenic level) and 3 ml×2 in EDTA tubes (for determination of whole blood level). The plasma from the lithium-heparin tube was freshly separated and both the plasma and whole blood samples were stored at 4° C. and subsequently analyzed in batches.
Plasma and whole blood arsenic concentration were assayed after the samples were deproteinized with 3% (w/v) trichloroacetic acid and then mixed with matrix modifiers. The matrix modifiers contained magnesium nitrate (10 g/L), palladium chloride (6 g/L), and ammonium sulphite (20 g/L) in 0.5% Triton X 100. All chemicals were of analytical grade and were obtained from Sigma (St Louis, Mo.). The treated samples were assayed for total arsenic concentration in whole blood and plasma (which includes As2O3 per se and its metabolites) by graphite furnace atomic absorption spectrophotometry (Simma 6000, Perkin-Elmer, Norwalk, Conn.). Concentrations are therefore expressed as nmol/L of arsenic above basal values. The between-day coefficient of variation of this method was 7.5-9.6% for arsenic concentrations varying from 559 to 2169 nmol/L. The accuracy of this method was assessed by spiking known amounts of arsenic into patient samples; recovery being 97.3-101.3% for concentrations varying from 301 to 678 nmol/L.
The concentration of arsenic in the cellular fraction of blood (Cc) at 48 hours after the initial intravenous dose was calculated from the corresponding plasma (Cp) and whole blood (Cb) concentrations and the prevailing hematocrit (Hct) value as follows:
Nano mols of arsenic in the plasma from 1 liter of blood=Cp(1-Hct).
Accordingly, the mass of arsenic in the remaining cellular fraction in 1 liter of blood amounts to Cb-[Cp(1-Hct)].
Thus, the concentration (weight/volume) of arsenic per liter of the cellular fraction of the blood Cc={Cb-[Cp(1-Hct)]}/Hct.

[5] = Oral arsenic bioavailability: plasma and whole blood arsenic AUC after IV (day 1) and oral (day 2) As2O3; assay type: in vivo, human patients
Protocol: As diets containing seafood contain arsenic, each patient was instructed to refrain from seafood, preferably for at least one week before arsenic administration. On day-1 at 10 A.M., 10 mg of a standard, commercially available IV As2O3 formulation (from Ophthalmic Laboratories, Sydney, Australia) diluted in 100 ml of Sodium Chloride 0.9% solution was infused IV over 60 minutes. At 10 A.M. on day-2 (i.e., 24 hours after the start of the IV infusion), each patient swallowed a 10 mg dose (10 ml) of our oral AS2O3 solution and none were instructed to fast before or during their treatment.
as §1, with “Five ml from each sample were collected in a non-gel lithium-heparin tube (for determination of plasma arsenic level) and 3 ml×2 in EDTA tubes (for determination of whole blood level).” left out
Plasma and whole blood arsenic concentration were assayed after the samples were deproteinized with 3% (w/v) trichloroacetic acid and then mixed with matrix modifiers. […] Concentrations are therefore expressed as nmol/L of arsenic above basal values. […]

Compound | efficacy in APL ([1]; oral, Lu et al. Blood 2002) | abnormal QTc prolongation on regularly performed ECGs ([2]; all nine patients receiving As2O3) | unexpected complications ([2]; nine patients) | remissions induced in APL patients ([1]; literature (Shen 1997, Soignet 1998, Niu 1999)) | cases in which PML/RARA became negative (PML/RARA; 3-6 months post-remission, of 12 patients) [cases] | PML/RARA after As2O3-induced CR (PML/RARA; all patients) | solubility in cold water [3] | Cellular Conc (Cc), Mean ([4]; 48 hours, mean of 9 patients) [nM/L] | Plasma Conc (Cp), Mean ([4]; 48 hours, mean of 9 patients) [nM/L] | Difference, Mean ([4]; 48 hours, mean of 9 patients, p = 0.013 two tailed paired t-test) | 48-hour concentrations in the cellular fraction of blood higher than corresponding plasma concentrations ([4]; except in patient no 1) [fold] | 48-hour blood cell arsenic levels greater than in plasma ([4]; on average, p=0.013) [%] | inter-individual variation in plasma AUCs among the nine patients ([5]; plasma) [fold] | inter-individual variation in whole blood AUCs among the nine patients ([5]; whole blood) [fold]
S1[As]2S[As]3S[As]2S[As]13 [tetra-arsenic tetra-sulphide] | highly efficacious in APL |  |  |  |  |  |  |  |  |  |  |  |  | 
arsenic trioxide [As2O3] |  | no instance of abnormal QTc prolongation | No patient suffered unexpected complications | over 90% | 11 | remained positive in all patients | sparingly and extremely slowly soluble | 286 | 85 | 201* nM/L | 2 to 3 | 270 | ≤ 5 | ≤ 10
